PubChem BioAssay (NCI)
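Assay format: 96-well plates, 48-hour exposure. GI50 is the concentration that inhibits growth by half. TGI denotes the concentration required for complete inhibition of growth.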

How the values were obtained:
Assay in all cases: inhibition of tumour cell growth, NCI panel, 48 h
[1] = system: UACC-257 melanoma
[2] = system: ACHN renal
[3] = system: PC-3 prostate
[4] = system: UO-31 renal
[5] = system: HCT-116 colon
[6] = system: NCI-H522 lung
[7] = system: RXF 393 renal
[8] = system: T-47D breast
[9] = system: EKVX NSCLC
[10] = system: NCI/ADR-RES ovarian
[11] = system: MALME-3M melanoma
[12] = system: HS 578T breast
[13] = system: MDA-MB-435
[14] = system: 786-0 renal
[15] = system: OVCAR-4 ovarian
[16] = system: UACC-62 melanoma
[17] = system: SF-295 CNS
[18] = system: SN12C renal
[19] = system: TK-10 renal
[20] = system: HL-60(TB) leukemia
[21] = system: SK-MEL-5 melanoma
[22] = system: NCI-H226 lung
[23] = system: RPMI-8226 leukemia
[24] = system: KM12 colon
[25] = system: SF-539 CNS
[26] = system: OVCAR-5 ovarian
[27] = system: M14 melanoma
[28] = system: A549 NSCLC
[29] = system: OVCAR-3 ovarian
[30] = system: SK-MEL-28 melanoma
[31] = system: OVCAR-8 ovarian
[32] = system: MCF7 breast
[33] = system: HOP-92 NSCLC
[34] = system: HCT-15 colon
[35] = system: MOLT-4 leukemia
[36] = system: SK-OV-3 ovarian
[37] = system: A498 renal
[38] = system: LOX IMVI melanoma
[39] = system: HCC-2998 colon
[40] = system: IGROV1 ovarian
[41] = system: SNB-19 CNS
[42] = system: SK-MEL-2 melanoma
[43] = system: SNB-75 CNS
[44] = system: NCI-H460 lung
[45] = system: DU-145 prostate
[46] = system: CAKI-1 renal
[47] = system: NCI-H23 lung
[48] = system: SF-268 CNS
[49] = system: CCRF-CEM leukemia
[50] = system: K-562 leukemia
[51] = system: MDA-MB-231 breast
[52] = system: HT29 colon
[53] = system: U251 CNS
[54] = system: SW-620 colon
[55] = system: SR leukemia
[56] = system: HOP-62 NSCLC
[57] = system: COLO 205 colon

## CC/C=C\CCC/C=C1/C(=O)C=C[C@@H]1C/C=C\CCCC(=O)OC
[1]
  GI50: 7.55 µM
  TGI: 20.5 µM
[2]
  GI50: 2.13 µM
  TGI: 4.43 µM
[3]
  GI50: 3.14 µM
  TGI: 8.11 µM
[4]
  GI50: 2.04 µM
  TGI: 5.15 µM
[5]
  GI50: 2.44 µM
  TGI: 4.95 µM
[6]
  GI50: 1.91 µM
  TGI: 3.77 µM
[7]
  GI50: 2.6 µM
  TGI: 6.02 µM
[8]
  GI50: 5.16 µM
  TGI: 19.2 µM
[9]
  GI50: 4.56 µM
  TGI: 15.6 µM
[10]
  GI50: 3.45 µM
  TGI: 18 µM
[11]
  GI50: 4.76 µM
  TGI: 16.6 µM
[12]
  GI50: 10.6 µM
  TGI: 53.3 µM
[13]
  GI50: 2.49 µM
  TGI: 6.39 µM
[14]
  GI50: 3.74 µM
  TGI: 11.4 µM
[15]
  GI50: 4.27 µM
  TGI: 16.4 µM
[16]
  GI50: 2.57 µM
  TGI: 6.49 µM
[17]
  GI50: 3.1 µM
  TGI: 8.75 µM
[18]
  GI50: 2.92 µM
  TGI: 8.18 µM
[19]
  GI50: 7.61 µM
  TGI: 20.1 µM
[20]
  GI50: 2.79 µM
  TGI: 7.51 µM
[21]
  GI50: 1.88 µM
  TGI: 3.5 µM
[22]
  GI50: 3.25 µM
  TGI: 9.64 µM
[23]
  GI50: 2.93 µM
  TGI: 8.15 µM
[24]
  GI50: 2.46 µM
  TGI: 6.39 µM
[25]
  GI50: 3.49 µM
  TGI: 12.9 µM
[26]
  GI50: 5.28 µM
  TGI: 17.6 µM
[27]
  GI50: 3.17 µM
  TGI: 10.1 µM
[28]
  GI50: 11.1 µM
  TGI: 28.4 µM
[29]
  GI50: 3.39 µM
  TGI: 11.8 µM
[30]
  GI50: 3.25 µM
  TGI: 10.3 µM
[31]
  GI50: 3.71 µM
  TGI: 12.8 µM
[32]
  GI50: 2.69 µM
  TGI: 13.9 µM
[33]
  GI50: 9.77 µM
  TGI: 23.6 µM
[34]
  GI50: 2.1 µM
  TGI: 5.13 µM
[35]
  GI50: 2.43 µM
  TGI: 8.39 µM
[36]
  GI50: 14.9 µM
  TGI: 29.4 µM
[37]
  GI50: 19.8 µM
  TGI: 34.7 µM
[38]
  GI50: 1.59 µM
  TGI: 3.28 µM
[39]
  GI50: 2.3 µM
  TGI: 4.02 µM
[40]
  GI50: 3.3 µM
  TGI: 11.5 µM
[41]
  GI50: 4.84 µM
  TGI: 17.7 µM
[42]
  GI50: 2.6 µM
  TGI: 7.21 µM
[43]
  GI50: 13.7 µM
  TGI: 28.5 µM
[44]
  GI50: 3.9 µM
  TGI: 14.2 µM
[45]
  GI50: 8.67 µM
  TGI: 21.1 µM
[46]
  GI50: 4.12 µM
  TGI: 13.5 µM
[47]
  GI50: 3.23 µM
  TGI: 10.8 µM
[48]
  GI50: 4.79 µM
  TGI: 22.1 µM
[49]
  GI50: 2.57 µM
  TGI: 8.32 µM
[50]
  GI50: 2.46 µM
  TGI: 11.6 µM
[51]
  GI50: 4.23 µM
  TGI: 14.9 µM
[52]
  GI50: 2.14 µM
  TGI: 3.87 µM
[53]
  GI50: 4.22 µM
  TGI: 14.5 µM
[54]
  GI50: 4.16 µM
  TGI: 18.7 µM
[55]
  GI50: 2.73 µM
  TGI: 9.22 µM
[56]
  GI50: 3.54 µM
  TGI: 11 µM
[57]
  GI50: 4.1 µM
  TGI: 12.5 µM
